We go through 1 compound from patent publication US20240299358A1, “COMPOSITIONS AND METHODS FOR DIAGNOSIS AND TREATMENT OF AUTOIMMUNE DISEASES” (DUKE UNIVERSITY, priority 2021, published 2024).

One test deals with Human CD3+ T cells. Briefly: Cytokine expression after anti-CD3/28 T cell stimulation with or without HS-131. The test is classed as cell-based. To be noted: HS-131 1 μM, 24 hours, vs vehicle. On the procedure:
The data were analyzed by 2-way ANOVA with Sidak's multiple comparison test, * p<0.05, ** p<0.01. *** p<0.001. Experiments were performed with 6 biological replicates. […] Experiments were performed with 3 biological replicates for each timepoint. […] Experiments were performed with 3 biological replicates for each timepoint. […] Temporal upregulation of eHsp90 (green line) post T cell stimulation. CD25 expression: 6-8 biological replicates per time point. eHsp90 expression 6 biological replicates for each timepoint. […] Data represent mean ±SD. The data were analyzed by 2-way ANOVA with Sidaks multiple comparison test. Experiments were performed once with 3 biological replicates. […] Data represent mean ±SEM. […] Experiment was performed once with 4 biological replicates.
Next, the expression of eHsp90 and total Hsp90 over the course of T cell activation was tracked. Both total Hsp90 cellular content and eHsp90 expression in anti-CD3/28 stimulated human PBMCs were evaluated. […] Specifically, anti-CD3/28 stimulation caused eHsp90 up regulation in CD69+/CD25+ and CD69+/CD25− T-cell populations with a 5-8 fold increase within the first 24 hours post activation, whereas CD69−/CD25− T cells show no increase in probe or eHsp90 levels (see. FIG. 3B). […] One candidate client eHsp90 protein is CD25, the IL-2 receptor. […] Here it was observed that CD25 expression peaked at 72 hours post activation, followed by a reduction in expression thereafter which correlates with reduced eHsp90 expression (see. FIG. 3D). Due to the tight correlation of CD25 and eHsp90 expression, it further tested whether exogenous IL-2 stimulation could maintain high expression of both proteins in activated T cells 72-96 hours post-stimulation. […] Due to IL-2's ability to enhance eHsp90 expression in activated cells, the impacts of eHsp90 inhibition in activated T cells on inflammatory signaling were investigated. Human CD3+ T cells were stimulated with CD3/CD28 activating antibodies for 24 hours in the presence of HS-131. Compared to vehicle treated cells. […] IFNY (p<0.001). IL-17A (p<0.001). MIP-1a/B (p=0.013) and TNF a (p=0.025) (see. FIG. 3F).

For a further test, the system named is eHsp90. Put plainly: Flow cytometry uptake of fluor-tethered Hsp90 inhibitors by T cells from human PBMCs. The test is classed as cell-based. The settings on record: anti-CD3/28 stimulated human PBMCs, following activation (FIG. 3A). On the procedure:
T-cell activation: PBMC aliquots (ZenBio SER-PBMC-F) were washed in RPMI-1640 with 10% FBS and PSG and then rested overnight in a T-75 flask. The suspended cells were then transferred to a fresh flask and activated in fresh RPMI-1640/10% FBS/PSG by 3:20,000 anti-CD3 (BioLegend 317303), 3:20,000 anti-CD28 (BioLegend 302913), and 1:10,000 (30 IU/mL) human IL-2 (CST 8907SC) and incubated for up to 72 hours. In the experiments with longer activation, samples were diluted 1:3 into fresh media containing hIL-2 at 72 hours post initial stimulation with CD3/CD28 antibodies.
Flow Cytometry: The activated/rested cells were plated into a 96-well round bottom plate and pelleted at low speed. Cells were resuspended in chilled media containing titrated HS-131 or HS-198 (in 1% DMSO) and stained for 30 minutes at RT. Fluorochrome tagged inhibitors and media were washed away with a PBS wash, followed by a PBS wash containing 3% NMS. Surface antibody stains were performed in 3% NMS/PBS for 30 minutes followed by PBS washes (2x). Samples were analyzed on BD FACSCanto II flow cytometer. Permeabilized samples were prepared as previously described followed by fixation in 4% Formaldehyde/PBS overnight at 4° C. Sample analysis was performed with Flowing Software and FlowJo.
A hallmark of T cell function is to proliferate rapidly in response to antigen presentation along with appropriate cytokine and costimulatory signaling. This leads to the induction of the chaperone machinery which is essential in facilitating this process. In some respects, antigen induced T cell proliferation may be analogous to oncogene driven metastasis. Therefore, to investigate whether proliferating T cells similarly express eHsp90 during T cell activation, their ability to absorb fluor-tethered Hsp90 inhibitors following an anti-CD3/CD28 challenge was examined (see. FIGS. 2A-2E). The structures of two types of fluor-tethered Hsp90 inhibitors (HS-131 and […]) that were used in the present studies are shown in FIG. 2A. […]
(In general: In flow cytometry, cells or beads pass a laser one at a time.)

Take `Cc1nn(-c2ccc(C(N)=O)c(NCCCOCCOCCOCCOCCOCCCNCc3ccc(C(=C\C=C4\N(CCCCS(=O)(=O)[O-])c5ccccc5C4(C)C)/C=C/C4=[N+](CCCCS(=O)(=O)O)c5ccccc5C4(C)C)cc3)c2)c2c1C(=O)CC(C)(C)C2` [HS-131]: in the test on Human CD3+ T cells (p<0.001), the GM-CSF result is “significantly reduced”, the IFNY entry was “significantly reduced” and the IL-17A entry was “significantly reduced”. Besides, the MIP-1a/B result with Human CD3+ T cells (p=0.013) is on record as “significantly reduced”. Further, the TNF a entry with Human CD3+ T cells (p=0.025) is reported as “significantly reduced”. Moreover, the “eHsp90 expression upregulation as determined by HS-131 binding” value in the test on eHsp90 was 20-25 fold.
